Test results as given in article PMC4147775, “Stimulation of Hepatic Apolipoprotein A-I Production by Novel Thieno-Triazolodiazepines: Roles of the Classical Benzodiazepine Receptor, PAF Receptor, and Bromodomain Binding” (Lipid insights, 2013).
Where two headings read alike, the source gives them in different places.

Columns and labels:
[1] = Metabolic stability in human hepatocytes; assay type: in vitro ADME; settings: cryopreserved human hepatocytes, donor 1, 10 μM, read-out: stability in human hepatocytes (% remaining after 120 min)
[2] = target: central BZD receptor; assay: Binding to central BZD receptor, 3H-flunitrazepam, rat cerebral cortex membranes; settings: for competition with labeled flunitrazepam: rat brain membranes, result in words (Figure 3A)
[3] = Cytotoxicity: ATP level (Cell Titer Glo); assay type: cell-based, human; settings: 72 hours; for ATP level in human hepatocytes: result in words
[4] = tested on: fibrosarcoma cells (HT1080); settings: read-out: mitochondrial membrane potential, IC50, cited from earlier work
[5] = tested on: fibrosarcoma cells (HT1080); assay: Cytotoxicity: mitochondrial membrane potential (TMRM); settings: for IC50: read-out: mitochondrial membrane potential in fibrosarcoma cells, IC50; for mitochondrial membrane potential in fibrosarcoma cells: 100 μM, result in words
[6] = target: T1, BRD2(1) (Homo sapiens, UniProt P25440); assay: Protein stability shift assay (thermal shift), BRD2(1); assay type: binding; settings: 10 μM ligand
T1 construct: the second as compared with the first bromodomain of these BRDs
T1 sequence (P25440 74-180 limits assumed): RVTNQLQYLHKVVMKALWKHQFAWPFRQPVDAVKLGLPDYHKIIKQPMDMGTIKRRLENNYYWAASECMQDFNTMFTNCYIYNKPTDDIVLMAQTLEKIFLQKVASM

[7] = target: T2, BRD2(2) (Homo sapiens, UniProt P25440); assay: Protein stability shift assay (thermal shift), BRD2(2); assay type: binding; settings: 10 μM ligand
T2 construct: the second as compared with the first bromodomain of these BRDs
T2 sequence (P25440 344-453 limits assumed): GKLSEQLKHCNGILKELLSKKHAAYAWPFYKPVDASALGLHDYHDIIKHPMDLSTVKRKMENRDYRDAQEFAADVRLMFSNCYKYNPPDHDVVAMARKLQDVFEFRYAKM

[8] = target: T3, BRD3(1) (Homo sapiens, UniProt Q15059); assay: Protein stability shift assay (thermal shift), BRD3(1); assay type: binding; settings: 10 μM ligand
T3 construct: the second as compared with the first bromodomain of these BRDs
T3 sequence (Q15059 34-140 limits assumed): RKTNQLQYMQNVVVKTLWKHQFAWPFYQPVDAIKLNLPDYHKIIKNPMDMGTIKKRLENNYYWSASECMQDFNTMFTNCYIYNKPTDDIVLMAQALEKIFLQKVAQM

[9] = target: T4, BRD4(2) (Homo sapiens, UniProt O60885); assay: Protein stability shift assay (thermal shift), BRD4(2); assay type: binding; settings: 10 μM ligand
T4 construct: the second as compared with the first bromodomain of these BRDs

[10] = target: T5, BRDT(1) (Homo sapiens, UniProt Q58F21); assay: Protein stability shift assay (thermal shift), BRDT(1); assay type: binding; settings: 10 μM ligand
T5 construct: the second as compared with the first bromodomain of these BRDs

[11] = target: T6, BRDT(2) (Homo sapiens, UniProt Q58F21); assay: Protein stability shift assay (thermal shift), BRDT(2); assay type: binding; settings: 10 μM ligand
T6 construct: the second as compared with the first bromodomain of these BRDs

[12] = target: T7, BAZ2B (Homo sapiens, UniProt Q9UIF8); assay: Protein stability shift assay (thermal shift), BAZ2B; assay type: binding; settings: 10 μM ligand
T7 construct: Thermal shift (Δtm^obs) of human bromodomains in the presence of 10 μM compound
T7 sequence (Q9UIF8 2060-2164 limits assumed): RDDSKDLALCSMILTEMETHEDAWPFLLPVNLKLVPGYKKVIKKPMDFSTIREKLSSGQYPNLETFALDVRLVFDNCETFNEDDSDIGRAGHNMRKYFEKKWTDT

[13] = target: T8, CREBBP (Homo sapiens, UniProt Q92793); assay: Protein stability shift assay (thermal shift), CREBBP; assay type: binding; settings: 10 μM ligand
T8 construct: Thermal shift (Δtm^obs) of human bromodomains in the presence of 10 μM compound
T8 sequence (Q92793 1085-1192 limits assumed): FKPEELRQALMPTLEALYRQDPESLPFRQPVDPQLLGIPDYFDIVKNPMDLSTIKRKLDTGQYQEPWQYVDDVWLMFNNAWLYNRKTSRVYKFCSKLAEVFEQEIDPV

[14] = target: T9, PB1(5) (Homo sapiens, UniProt Q86U86); assay: Protein stability shift assay (thermal shift), PB1(5); assay type: binding; settings: 10 μM ligand
T9 construct: Thermal shift (Δtm^obs) of human bromodomains in the presence of 10 μM compound
T9 sequence (Q86U86 653-763 limits assumed): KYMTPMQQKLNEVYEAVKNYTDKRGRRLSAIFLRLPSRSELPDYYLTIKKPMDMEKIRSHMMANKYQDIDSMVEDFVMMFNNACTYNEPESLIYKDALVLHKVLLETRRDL

[15] = target: T10, PCAF (Homo sapiens, UniProt Q92831); assay: Protein stability shift assay (thermal shift), PCAF; assay type: binding; settings: 10 μM ligand
T10 construct: Thermal shift (Δtm^obs) of human bromodomains in the presence of 10 μM compound
T10 sequence (Q92831 723-827 limits assumed): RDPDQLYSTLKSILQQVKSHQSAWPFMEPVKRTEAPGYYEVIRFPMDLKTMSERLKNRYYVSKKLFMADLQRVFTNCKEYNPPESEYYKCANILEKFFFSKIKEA

[16] = tested on: apoA-I production by primary human hepatocytes; assay: apoA-I production by primary human hepatocytes (ELISA); assay type: cell-based; settings: cultured human hepatocytes, 72 hours, maximal stimulation
[17] = tested on: apoA-I production by Hep-G2 cells; assay: apoA-I production by HepG2 cells (ELISA); assay type: cell-based, human; settings: result in words (Figure 5)
Method: On the day of the experiment, supernatant medium was discarded and replaced by a solution of test compounds in HCM™ medium, which was prepared from DMSO stock solutions immediately before use. Stock solution concentrations assured that DMSO never exceeded 0.1% in the assay, as DMSO alone exerts significant effects on hepatocyte gene expression. Each concentration was run in triplicate whereas multiple wells were prepared for vehicle (DMSO) controls. The cells were cultured in the presence of the studied compounds and DMSO control for 72 hours at 37°C in 5% CO2 in air. The supernatants were replaced by a fresh dilution of test compounds after 24 hours and 48 hours, respectively. […]
After removal of the supernatants after 72 hours, all wells were washed 3 times with 200 μL isotonic 0.29 MD-mannitol and 25 μL d H2O was added to each well. The protein content of each well was determined using the Pierce® BCA Protein Assay Kit according to kit instructions and calculated as micrograms cellular protein per well.
For apoA-I detection, the human apoA1 ELISA kit from Mabtech Nacka, Sweden (Catalog no. 3710-1H-20) was used. […] Finally, the chromogenic substrate was added, and absorbance was measured at 450 nm.
The apoA-I content of each sample was calculated using the standard curve generated with each plate and was expressed as ng apoA-I per mg of cellular protein.

[18] = target: T11, human recombinant PAF receptor (Homo sapiens, UniProt P25105); assay: Binding to PAF receptor, 3H-C16-PAF, CHO cells; settings: for competition with labeled PAF: cells expressing the human PAF receptor, result in words (Figure 3B)
T11 construct: expressed in transfected cells; host or cells: CHO cells
T11 sequence (P25105 whole entry): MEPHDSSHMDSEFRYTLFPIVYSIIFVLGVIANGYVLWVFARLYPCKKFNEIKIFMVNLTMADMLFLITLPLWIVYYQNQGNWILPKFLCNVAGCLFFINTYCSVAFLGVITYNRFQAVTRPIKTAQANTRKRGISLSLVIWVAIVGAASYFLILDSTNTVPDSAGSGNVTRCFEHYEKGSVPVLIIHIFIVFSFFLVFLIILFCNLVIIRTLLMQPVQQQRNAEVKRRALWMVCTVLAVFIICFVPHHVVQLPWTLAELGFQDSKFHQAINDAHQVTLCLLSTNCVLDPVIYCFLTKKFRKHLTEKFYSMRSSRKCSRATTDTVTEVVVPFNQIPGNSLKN

[19] = target: BRD3(2) (Homo sapiens, UniProt Q15059); assay: Protein stability shift assay (thermal shift), BRD3(2); assay type: binding; design: the second as compared with the first bromodomain of these BRDs; settings: 10 μM ligand
Sequence of BRD3(2) (Q15059 306-415 limits assumed): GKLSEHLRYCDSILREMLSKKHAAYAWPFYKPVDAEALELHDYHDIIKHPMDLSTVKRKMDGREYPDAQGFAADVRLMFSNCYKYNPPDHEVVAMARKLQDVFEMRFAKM

[20] = target: BRD4(1) (Homo sapiens, UniProt O60885); assay: Protein stability shift assay (thermal shift), BRD4(1); assay type: binding; design: the second as compared with the first bromodomain of these BRDs; settings: 10 μM ligand
[21] = tested on: apoA-I; design: method as in PMID 21449977; settings: mice transgenic for human apoA-I; cited from earlier work

O=C(O)Cc1ccccc1Nc1c(Cl)cccc1Cl [Diclofenac, reference compound]
remaining at 2 h, 10 μM [1]: 70 ± 10%

CN1C(=O)CN=C(c2ccccc2)c2cc(Cl)ccc21 [Diazepam, reference compound]
IC50 ([2]; 3H-flunitrazepam, rat cerebral cortex membranes, reference): 20 nM

C[C@]12CC[C@H]3[C@@H](CCC4=CC(=O)CC[C@@]43C)[C@@H]1CC[C@@H]2O [Testosterone, reference compound]
remaining at 2 h, 10 μM [1]: 64%

COCc1c(C(C)C)nc(C(C)C)c(/C=C/[C@@H](O)C[C@@H](O)CC(=O)O)c1-c1ccc(F)cc1 [Cerivastatin]
ATP level in human hepatocytes, reduction ([3]; 20 μM): 59 ± 10% reduction at 20 μM (n = 3) | IC50 ([4]; ref CEREP Cytotoxicity Application Note): 660 nM | IC50 ([4]; ref CEREP study report 14547): 1100 nM | IC50 ([4]; ref O’Brien et al. Arch toxicol. 2006;80:580–604): 3000 nM | IC50 ([5]; Homo sapiens, HT-1080, 72 h): 2600 nM

Cc1nnc2n1-c1sccc1C(c1ccc3c(c1)OCO3)=NC2 [MDCO-3783]
Thermal shift (ΔTm obs) BRD2(1) [6]: 0.3 | Thermal shift (ΔTm obs) BRD2(2) [7]: 1.8 | Thermal shift (ΔTm obs) BRD3(1) [8]: 1.8 | Thermal shift (ΔTm obs) BRD4(2) [9]: 1.9 | Thermal shift (ΔTm obs) BRDT(1) [10]: 0.3 | Thermal shift (ΔTm obs) BRDT(2) [11]: 2.4 | Thermal shift (ΔTm obs) BAZ2B [12]: 0.0 | Thermal shift (ΔTm obs) CREBBP [13]: −0.1 | Thermal shift (ΔTm obs) PB1(5) [14]: 0.0 | Thermal shift (ΔTm obs) PCAF [15]: 1.9 | stimulation of apoA-I production [16]: up to 3 fold | effect on apoA-I production [17]: potency and efficacy comparable to that of (−)-JQ1 | competition with labeled flunitrazepam [2]: did not compete | competition with labeled PAF [18]: only weakly displaced | remaining at 2 h, 10 μM [1]: 97% | ATP level in human hepatocytes ([3]; 100 μM): no effect at 100 μM (n = 3) | mitochondrial membrane potential in fibrosarcoma cells ([5]; 72 hours): no effect at 100 μM (n = 5) | Thermal shift (ΔTm obs) BRD3(2) [19]: 2.1 | Thermal shift (ΔTm obs) BRD4(1) [20]: 2.4

N#CC(C#N)=NNc1ccc(OC(F)(F)F)cc1 [FCCP, reference compound]
ATP level in human hepatocytes, reduction ([3]; 100 μM): 96 ± 0.7% reduction at 100 μM (n = 2) | IC50 ([5]; 72 hours): 17000 nM

Cc1nnc2n1-c1sccc1C(c1ccccc1)=NC2 [MDCO-3760]
Thermal shift (ΔTm obs) BRD2(1) [6]: 0.1 | Thermal shift (ΔTm obs) BRD2(2) [7]: 2.6 | Thermal shift (ΔTm obs) BRD3(1) [8]: 1.9 | Thermal shift (ΔTm obs) BRD4(2) [9]: 2.8 | Thermal shift (ΔTm obs) BRDT(1) [10]: 0.4 | Thermal shift (ΔTm obs) BRDT(2) [11]: 3.2 | Thermal shift (ΔTm obs) BAZ2B [12]: 0.1 | Thermal shift (ΔTm obs) CREBBP [13]: −0.1 | Thermal shift (ΔTm obs) PB1(5) [14]: −4.7 | Thermal shift (ΔTm obs) PCAF [15]: 2.2 | stimulation of apoA-I production [16]: up to 3 fold | competition with labeled flunitrazepam [2]: able to compete | competition with labeled PAF [18]: able to compete | remaining at 2 h, 10 μM [1]: 105% | ATP level in human hepatocytes ([3]; 100 μM): no effect at 100 μM (n = 3) | plasma levels of apoA-I [21]: increased | mitochondrial membrane potential in fibrosarcoma cells ([5]; 72 hours): no effect at 100 μM (n = 5) | Thermal shift (ΔTm obs) BRD3(2) [19]: 3.0 | Thermal shift (ΔTm obs) BRD4(1) [20]: 2.7

CCCCCCCCCCCCCCCCOC[C@H](COP(=O)([O-])OCC[N+](C)(C)C)OC(C)=O [C16-PAF, reference compound]
IC50 ([18]; 3H-C16-PAF, CHO cells expressing human recombinant PAF receptor, reference): 0.7 nM

Cc1sc2c(c1C)C(c1ccc(Cl)cc1)=NC(CC(=O)OC(C)(C)C)c1nnc(C)n1-2 (single isomer, unassigned; (+)) [(+)-JQ1, reference compound]
effect on apoA-I production [17]: very effective stimulator of apoA-I production
